Reference: patent publication US8192962B2, “Processes for detecting toxic substances” (Daikin Industries, Ltd., priority 2001, dated 2012)

Tested on: Metabolism protein genes
Assay: DNA chip mRNA expression in yeast, metabolism protein genes (Table 7)
Format: cell-based, Saccharomyces cerevisiae S288C
How it was run: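 Cells were grown at 25° C. in YPD, treated at logarithmic phase for 2 h with a chemical at a concentration inhibiting growth but not causing death, and compared with untreated cultures. Labeled cDNA was hybridized to a DNA chip carrying all yeast genes, and the expression ratio was taken from scanner fluorescence.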

Structure (SMILES): [Cl][Cd][Cl] [(2), CdCl2]
- The level of expressed mRNA in the presence of chemical substance/The level of expressed mRNA in the absence of chemical substance (yeast gene YAL012W): 6.5
- The level of expressed mRNA in the presence of chemical substance/The level of expressed mRNA in the absence of chemical substance (yeast gene YAL038W): 1.0
- level of expressed mRNA in the presence/in the absence of chemical substance (yeast gene YBR003W): 0.8
- level of expressed mRNA in the presence/in the absence of chemical substance (yeast gene YBR011C): 1.8
- level of expressed mRNA in the presence/in the absence of chemical substance (yeast gene YBR020W): 0.5
- The level of expressed mRNA in the presence of chemical substance/The level of expressed mRNA in the absence of chemical substance (yeast gene YBR023C): 0.8
- The level of expressed mRNA in the presence of chemical substance/The level of expressed mRNA in the absence of chemical substance (yeast gene YBR029C): 0.2
- The level of expressed mRNA in the presence of chemical substance/The level of expressed mRNA in the absence of chemical substance (yeast gene YBR183W): 1.5
- The level of expressed mRNA in the presence of chemical substance/The level of expressed mRNA in the absence of chemical substance (yeast gene YBR222C): 1.2
- The level of expressed mRNA in the presence of chemical substance/The level of expressed mRNA in the absence of chemical substance (yeast gene YBR256C): 1.4
- The level of expressed mRNA in the presence of chemical substance/The level of expressed mRNA in the absence of chemical substance (yeast gene YCL009C): 0.9
- The level of expressed mRNA in the presence of chemical substance/The level of expressed mRNA in the absence of chemical substance (yeast gene YCL064C): 0.6
- level of expressed mRNA in the presence/in the absence of chemical substance (yeast gene YCR010C): 1.6
- level of expressed mRNA in the presence/in the absence of chemical substance (yeast gene YCR034W): 0.4
- The level of expressed mRNA in the presence of chemical substance/The level of expressed mRNA in the absence of chemical substance (yeast gene YCR048W): 1.1
- The level of expressed mRNA in the presence of chemical substance/The level of expressed mRNA in the absence of chemical substance (yeast gene YCR098C): 3.0
- The level of expressed mRNA in the presence of chemical substance/The level of expressed mRNA in the absence of chemical substance (yeast gene YDR019C): 0.5
- level of expressed mRNA in the presence/in the absence of chemical substance (yeast gene YDR050C): 1.3
- level of expressed mRNA in the presence/in the absence of chemical substance (yeast gene YDR073W): 0.9
- level of expressed mRNA in the presence/in the absence of chemical substance (yeast gene YDR123C): 0.8
- level of expressed mRNA in the presence/in the absence of chemical substance (yeast gene YDR178W): 2.0
- level of expressed mRNA in the presence/in the absence of chemical substance (yeast gene YDR277C): 1.2
- level of expressed mRNA in the presence/in the absence of chemical substance (yeast gene YDR284C): 1.5
- level of expressed mRNA in the presence/in the absence of chemical substance (yeast gene YDR345C): 0.9
- The level of expressed mRNA in the presence of chemical substance/The level of expressed mRNA in the absence of chemical substance (yeast gene YDR380W): 0.8
- level of expressed mRNA in the presence/in the absence of chemical substance (yeast gene YDR400W): 2.0
- level of expressed mRNA in the presence/in the absence of chemical substance (yeast gene YDR408C): 1.0
- level of expressed mRNA in the presence/in the absence of chemical substance (yeast gene YDR483W): 1.0
- The level of expressed mRNA in the presence of chemical substance/The level of expressed mRNA in the absence of chemical substance (yeast gene YDR497C): 0.5
- The level of expressed mRNA in the presence of chemical substance/The level of expressed mRNA in the absence of chemical substance (yeast gene YDR502C): 2.8
- The level of expressed mRNA in the presence of chemical substance/The level of expressed mRNA in the absence of chemical substance (yeast gene YDR516C): 1.5
- level of expressed mRNA in the presence/in the absence of chemical substance (yeast gene YEL063C): 0.8
- level of expressed mRNA in the presence/in the absence of chemical substance (yeast gene YER015W): 0.9
- The level of expressed mRNA in the presence of chemical substance/The level of expressed mRNA in the absence of chemical substance (yeast gene YER026C): 0.6
- The level of expressed mRNA in the presence of chemical substance/The level of expressed mRNA in the absence of chemical substance (yeast gene YER053C): 1.8
- The level of expressed mRNA in the presence of chemical substance/The level of expressed mRNA in the absence of chemical substance (yeast gene YER069W): 0.8
- level of expressed mRNA in the presence/in the absence of chemical substance (yeast gene YER081W): 1.9
- The level of expressed mRNA in the presence of chemical substance/The level of expressed mRNA in the absence of chemical substance (yeast gene YER096W): 2.3
- level of expressed mRNA in the presence/in the absence of chemical substance (yeast gene YER120W): 1.1
- The level of expressed mRNA in the presence of chemical substance/The level of expressed mRNA in the absence of chemical substance (yeast gene YER178W): 0.9
- level of expressed mRNA in the presence/in the absence of chemical substance (yeast gene YFL011W): 0.7
- The level of expressed mRNA in the presence of chemical substance/The level of expressed mRNA in the absence of chemical substance (yeast gene YFL014W): 7.2
- The level of expressed mRNA in the presence of chemical substance/The level of expressed mRNA in the absence of chemical substance (yeast gene YFL030W): 6.0
- The level of expressed mRNA in the presence of chemical substance/The level of expressed mRNA in the absence of chemical substance (yeast gene YFL031W): 1.3
- The level of expressed mRNA in the presence of chemical substance/The level of expressed mRNA in the absence of chemical substance (yeast gene YFL056C): 2.3
- The level of expressed mRNA in the presence of chemical substance/The level of expressed mRNA in the absence of chemical substance (yeast gene YFL057C): 5.8
- The level of expressed mRNA in the presence of chemical substance/The level of expressed mRNA in the absence of chemical substance (yeast gene YFR047C): 4.0
- level of expressed mRNA in the presence/in the absence of chemical substance (yeast gene YGL012W): 0.8
- The level of expressed mRNA in the presence of chemical substance/The level of expressed mRNA in the absence of chemical substance (yeast gene YGL022W): 0.8
- level of expressed mRNA in the presence/in the absence of chemical substance (yeast gene YGL115W): 0.6
- The level of expressed mRNA in the presence of chemical substance/The level of expressed mRNA in the absence of chemical substance (yeast gene YGL126W): 1.3
- level of expressed mRNA in the presence/in the absence of chemical substance (yeast gene YGL205W): 0.9
- The level of expressed mRNA in the presence of chemical substance/The level of expressed mRNA in the absence of chemical substance (yeast gene YGL209W): 1.6
- The level of expressed mRNA in the presence of chemical substance/The level of expressed mRNA in the absence of chemical substance (yeast gene YGL248W): 1.3
- The level of expressed mRNA in the presence of chemical substance/The level of expressed mRNA in the absence of chemical substance (yeast gene YGR037C): 1.2
- The level of expressed mRNA in the presence of chemical substance/The level of expressed mRNA in the absence of chemical substance (yeast gene YGR055W): 5.7
- level of expressed mRNA in the presence/in the absence of chemical substance (yeast gene YGR096W): 1.0
- level of expressed mRNA in the presence/in the absence of chemical substance (yeast gene YGR191W): 0.7
- The level of expressed mRNA in the presence of chemical substance/The level of expressed mRNA in the absence of chemical substance (yeast gene YGR194C): 1.0
- level of expressed mRNA in the presence/in the absence of chemical substance (yeast gene YGR204W): 1.1
- The level of expressed mRNA in the presence of chemical substance/The level of expressed mRNA in the absence of chemical substance (yeast gene YGR256W): 1.5
- The level of expressed mRNA in the presence of chemical substance/The level of expressed mRNA in the absence of chemical substance (yeast gene YGR282C): 0.7
- level of expressed mRNA in the presence/in the absence of chemical substance (yeast gene YGR288W): 0.5
- level of expressed mRNA in the presence/in the absence of chemical substance (yeast gene YHR025W): 0.8
- The level of expressed mRNA in the presence of chemical substance/The level of expressed mRNA in the absence of chemical substance (yeast gene YHR111W): 1.3
- level of expressed mRNA in the presence/in the absence of chemical substance (yeast gene YHR123W): 1.2
- The level of expressed mRNA in the presence of chemical substance/The level of expressed mRNA in the absence of chemical substance (yeast gene YHR137W): 1.0
- The level of expressed mRNA in the presence of chemical substance/The level of expressed mRNA in the absence of chemical substance (yeast gene YHR174W): 1.4
- The level of expressed mRNA in the presence of chemical substance/The level of expressed mRNA in the absence of chemical substance (yeast gene YHR176W): 2.0
- level of expressed mRNA in the presence/in the absence of chemical substance (yeast gene YHR210C): 1.0
- level of expressed mRNA in the presence/in the absence of chemical substance (yeast gene YIL006W): 1.1
- The level of expressed mRNA in the presence of chemical substance/The level of expressed mRNA in the absence of chemical substance (yeast gene YIL045W): 1.4
- The level of expressed mRNA in the presence of chemical substance/The level of expressed mRNA in the absence of chemical substance (yeast gene YIL107C): 0.8
- The level of expressed mRNA in the presence of chemical substance/The level of expressed mRNA in the absence of chemical substance (yeast gene YIL154C): 1.3
- The level of expressed mRNA in the presence of chemical substance/The level of expressed mRNA in the absence of chemical substance (yeast gene YIL155C): 0.7
- The level of expressed mRNA in the presence of chemical substance/The level of expressed mRNA in the absence of chemical substance (yeast gene YIR034C): 1.1
- The level of expressed mRNA in the presence of chemical substance/The level of expressed mRNA in the absence of chemical substance (yeast gene YIR036C): 1.7
- The level of expressed mRNA in the presence of chemical substance/The level of expressed mRNA in the absence of chemical substance (yeast gene YJL031C): 1.2
- The level of expressed mRNA in the presence of chemical substance/The level of expressed mRNA in the absence of chemical substance (yeast gene YJL068C): 2.7
- The level of expressed mRNA in the presence of chemical substance/The level of expressed mRNA in the absence of chemical substance (yeast gene YJL088W): 0.8
- The level of expressed mRNA in the presence of chemical substance/The level of expressed mRNA in the absence of chemical substance (yeast gene YJL099W): 1.2
- level of expressed mRNA in the presence/in the absence of chemical substance (yeast gene YJL121C): 0.5
- level of expressed mRNA in the presence/in the absence of chemical substance (yeast gene YJL167W): 1.4
- The level of expressed mRNA in the presence of chemical substance/The level of expressed mRNA in the absence of chemical substance (yeast gene YJL172W): 2.1
- level of expressed mRNA in the presence/in the absence of chemical substance (yeast gene YJL216C): 4.7
- The level of expressed mRNA in the presence of chemical substance/The level of expressed mRNA in the absence of chemical substance (yeast gene YJL219W): 2.5
- level of expressed mRNA in the presence/in the absence of chemical substance (yeast gene YJR077C): 1.1
- The level of expressed mRNA in the presence of chemical substance/The level of expressed mRNA in the absence of chemical substance (yeast gene YJR137C): 2.9
- level of expressed mRNA in the presence/in the absence of chemical substance (yeast gene YJR143C): 0.6
- The level of expressed mRNA in the presence of chemical substance/The level of expressed mRNA in the absence of chemical substance (yeast gene YJR148W): 1.4
